Data on 16 compounds can be found in US20250136606A1, “MODULATORS OF TRPML, THEIR COMPOSITIONS AND METHODS OF USE” (Caraway Therapeutics, Inc., priority 2021, published 2025).

SMILES strings stand for the structures.

What all share (assay type): cell-based
The target in one experiment is TRPML1 (Homo sapiens, UniProt Q9GZU1). Kind of experiment: Fluorescent TRPML1 assay (Fluo4-AM calcium fluorescence in doxycycline-induced HEK-293 Trex cells). The method, boiled down:
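First, expression of surface-targeted mutant human TRPML1 is induced in HEK-293 Trex cells with 0.5 ug/mL doxycycline the day before. Next, cells take up 1 micromolar Fluo4-AM in Ringer's with 0.1% Pluronic. Finally, they are added to compounds (6 nanomolar–20 micromolar final) in 10 mM calcium Ringer's and fluorescence is read.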

Another experiment addresses T1, TRPML2 (Homo sapiens, UniProt Q8IZK6).
T1 construct: expressed in transfected cells
T1 sequence (Q8IZK6 1-566): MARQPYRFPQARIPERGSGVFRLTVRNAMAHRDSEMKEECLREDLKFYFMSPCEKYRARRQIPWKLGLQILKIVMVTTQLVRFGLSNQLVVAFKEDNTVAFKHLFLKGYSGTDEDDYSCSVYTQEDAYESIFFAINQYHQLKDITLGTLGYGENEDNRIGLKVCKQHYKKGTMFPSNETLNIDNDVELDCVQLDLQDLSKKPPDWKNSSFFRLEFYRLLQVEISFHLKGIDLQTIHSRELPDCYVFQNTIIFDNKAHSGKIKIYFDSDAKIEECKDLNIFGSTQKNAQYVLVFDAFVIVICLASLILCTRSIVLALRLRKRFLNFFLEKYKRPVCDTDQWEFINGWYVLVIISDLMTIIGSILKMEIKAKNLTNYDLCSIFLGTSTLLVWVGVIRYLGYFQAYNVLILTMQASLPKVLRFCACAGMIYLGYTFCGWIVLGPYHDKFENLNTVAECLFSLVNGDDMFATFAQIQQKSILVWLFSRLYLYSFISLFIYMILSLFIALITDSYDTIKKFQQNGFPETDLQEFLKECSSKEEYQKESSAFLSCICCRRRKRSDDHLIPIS
Kind of experiment: Fluorescent TRPML2 assay (performed as for TRPML1, substituting the TRPML2 subtype). An outline of the steps: (§1)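 HEK-293 Trex cells with doxycycline-induced (0.5 ug/mL) surface-directed human TRPML subtype, loaded with 1 μM Fluo4-AM, resuspended in Ringer's with 10 mM calcium. Compounds at 20 μM to 6 nM final in half-log steps, triplicate; fluorescence ex 480/em 540; EC50 by non-linear regression versus plate controls.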

The target in a further experiment is T2, TRPML3 (Homo sapiens, UniProt Q8TDD5).
T2 construct: expressed in transfected cells
T2 sequence (Q8TDD5 1-553): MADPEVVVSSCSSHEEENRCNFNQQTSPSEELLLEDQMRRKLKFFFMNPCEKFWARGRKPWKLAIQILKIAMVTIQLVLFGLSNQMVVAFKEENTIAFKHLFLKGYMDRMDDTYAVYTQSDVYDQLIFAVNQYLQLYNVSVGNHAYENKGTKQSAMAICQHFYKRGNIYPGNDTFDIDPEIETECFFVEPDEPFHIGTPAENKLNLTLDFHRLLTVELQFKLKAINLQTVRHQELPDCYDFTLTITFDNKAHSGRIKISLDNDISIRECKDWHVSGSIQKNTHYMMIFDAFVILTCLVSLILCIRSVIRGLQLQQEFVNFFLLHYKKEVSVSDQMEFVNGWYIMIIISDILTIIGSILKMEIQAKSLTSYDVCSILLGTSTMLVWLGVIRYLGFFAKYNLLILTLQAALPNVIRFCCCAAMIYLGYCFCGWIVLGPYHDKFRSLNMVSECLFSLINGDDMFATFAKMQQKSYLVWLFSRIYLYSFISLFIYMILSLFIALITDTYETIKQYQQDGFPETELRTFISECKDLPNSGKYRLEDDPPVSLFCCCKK
Kind of experiment: Fluorescent TRPML3 assay (performed as for TRPML1, substituting the TRPML3 subtype). An outline of the steps: as §1

Sequence of TRPML1 (Q9GZU1 whole entry L15A/L16A/L577A/L578A, form open): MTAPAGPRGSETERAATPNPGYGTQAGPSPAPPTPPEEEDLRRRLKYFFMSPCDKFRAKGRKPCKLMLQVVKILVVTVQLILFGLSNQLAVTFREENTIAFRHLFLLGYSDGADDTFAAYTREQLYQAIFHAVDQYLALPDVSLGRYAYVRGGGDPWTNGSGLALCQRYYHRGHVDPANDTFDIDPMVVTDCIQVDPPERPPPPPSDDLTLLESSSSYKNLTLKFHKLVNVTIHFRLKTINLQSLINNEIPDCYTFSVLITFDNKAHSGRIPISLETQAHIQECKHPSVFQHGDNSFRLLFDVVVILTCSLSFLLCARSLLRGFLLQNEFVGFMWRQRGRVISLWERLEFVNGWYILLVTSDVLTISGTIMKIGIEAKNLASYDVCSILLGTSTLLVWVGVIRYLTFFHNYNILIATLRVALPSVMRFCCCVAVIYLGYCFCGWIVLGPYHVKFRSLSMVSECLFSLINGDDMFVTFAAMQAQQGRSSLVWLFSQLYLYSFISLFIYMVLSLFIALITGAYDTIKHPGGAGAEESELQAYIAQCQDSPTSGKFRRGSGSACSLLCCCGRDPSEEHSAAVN

Turning to `C[C@@H]1CN(c2ncnc3c2c(C(F)(F)F)cn3-c2cc(C#N)ncn2)[C@@H](C)CN1C(=O)OC(C)(C)C` [Compound 509, tert-butyl (2R,5S)-4-(7-(6-cyanopyrimidin-4-yl)-5-(trifluoromethyl)-7H-pyrrolo[2,3-d]pyrimidin-4-yl)-2,5-dimethylpiperazine-1-carboxylate], the EC50 on TRPML1, at TRPML2 and on TRPML3 was less than 100 nM throughout.
As for `C[C@@H]1CN(c2ncnc3c2c(C(F)(F)F)cn3-c2nccc(C#N)n2)[C@@H](C)CN1C(=O)OC(C)(C)C` [Compound 510, tert-butyl (2R,5S)-4-(7-(4-cyanopyrimidin-2-yl)-5-(trifluoromethyl)-7H-pyrrolo[2,3-d]pyrimidin-4-yl)-2,5-dimethylpiperazine-1-carboxylate], the EC50 was 100 to 500 nM on TRPML1, greater than 2000 nM at TRPML2 and less than 100 nM at TRPML3.
Taken in the same sequence, the figures for `C[C@@H]1CN(c2ncnc3c2c(C(F)F)cn3-c2cc(C#N)ccn2)CCN1C(=O)OC(C)(C)C` [Compound 511, tert-butyl (R)-4-(7-(4-cyanopyridin-2-yl)-5-(difluoromethyl)-7H-pyrrolo[2,3-d]pyrimidin-4-yl)-2-methylpiperazine-1-carboxylate] were less than 100 nM, less than 100 nM and less than 100 nM.
Taken in the same sequence, the figures for `CCC(CC)OC(=O)N1C[C@H](C)N(c2ncnc3c2c(C(F)(F)F)cn3-c2cc(C#N)ccn2)C[C@H]1C` [Compound 512, pentan-3-yl (2R,5S)-4-(7-(4-cyanopyridin-2-yl)-5-(trifluoromethyl)-7H-pyrrolo[2,3-d]pyrimidin-4-yl)-2,5-dimethylpiperazine-1-carboxylate] were less than 100 nM, 100 to 500 nM and less than 100 nM.
Taken in the same sequence, the figures for `C[C@@H]1CN(c2ncnc3c2c(C(F)(F)F)cn3-c2cccc(C#N)c2)[C@@H](C)CN1C(=O)OC(C)(C)C` [Compound 513, tert-butyl (2R,5S)-4-(7-(3-cyanophenyl)-5-(trifluoromethyl)-7H-pyrrolo[2,3-d]pyrimidin-4-yl)-2,5-dimethylpiperazine-1-carboxylate] were less than 100 nM, 500 to 2000 nM and less than 100 nM.
As for `C[C@H]1CN(C(=O)OC(C)(C)C)CCN1c1ncnc2c1c(C(F)F)cn2-c1cc(C#N)ccn1` [Compound 514, tert-butyl (S)-4-(7-(4-cyanopyridin-2-yl)-5-(difluoromethyl)-7H-pyrrolo[2,3-d]pyrimidin-4-yl)-3-methylpiperazine-1-carboxylate], the 50% effective concentration (EC50) at TRPML1, on TRPML2 and on TRPML3 was less than 100 nM in each case.
Regarding `C[C@@H]1CN(c2ncnc3c2c(C(F)(F)F)cn3-c2cc(C#N)ccn2)[C@@H](C)CN1C(=O)OC1CCC1` [Compound 516, cyclobutyl (2R,5S)-4-(7-(4-cyanopyridin-2-yl)-5-(trifluoromethyl)-7H-pyrrolo[2,3-d]pyrimidin-4-yl)-2,5-dimethylpiperazine-1-carboxylate], the EC50 at TRPML1, at TRPML2 and at TRPML3 was less than 100 nM throughout.
Regarding `Cc1cc(C#N)cc(-n2cc(C(F)(F)F)c3c(N4C[C@@H](C)N(C(=O)OC(C)(C)C)C[C@@H]4C)ncnc32)n1` [Compound 517, tert-butyl (2R,5S)-4-(7-(4-cyano-6-methylpyridin-2-yl)-5-(trifluoromethyl)-7H-pyrrolo[2,3-d]pyrimidin-4-yl)-2,5-dimethylpiperazine-1-carboxylate], the EC50 at TRPML1 was less than 100 nM; at TRPML2, 100 to 500 nM; on TRPML3, less than 100 nM.
For `[2H]C([2H])([2H])C(OC(=O)N1C[C@H](C)N(c2ncnc3c2c(C(F)(F)F)cn3-c2cc(C#N)ccn2)C[C@H]1C)(C([2H])([2H])[2H])C([2H])([2H])[2H]` [Compound 518, 2-(methyl-d3)propan-2-yl-1,1,1,3,3,3-d6 (2R,5S)-4-(7-(4-cyanopyridin-2-yl)-5-(trifluoromethyl)-7H-pyrrolo[2,3-d]pyrimidin-4-yl)-2,5-dimethylpiperazine-1-carboxylate], the EC50 on TRPML1, at TRPML2 and on TRPML3 was less than 100 nM throughout.
Regarding `C[C@@H]1CN(c2ncnc3c2c(C(F)(F)F)cn3-c2cc(C#N)ccn2)[C@@H](C)CN1C(=O)OC1(C)CC1` [Compound 519, 1-methylcyclopropyl (2R,5S)-4-(7-(4-cyanopyridin-2-yl)-5-(trifluoromethyl)-7H-pyrrolo[2,3-d]pyrimidin-4-yl)-2,5-dimethylpiperazine-1-carboxylate], the concentration for a half-maximal effect (EC50) is less than 100 nM on TRPML1, 100 to 500 nM at TRPML2 and less than 100 nM on TRPML3.
For the compound `C[C@@H]1CN(c2ncnc3c2c(C(F)F)cn3-c2cc(C#N)ccn2)[C@@H](C)CN1C(=O)OC(C)(C)C` [Compound 520, tert-butyl (2R,5S)-4-(7-(4-cyanopyridin-2-yl)-5-(difluoromethyl)-7H-pyrrolo[2,3-d]pyrimidin-4-yl)-2,5-dimethylpiperazine-1-carboxylate], the figures for the EC50 on TRPML1, on TRPML2 and on TRPML3 were less than 100 nM, 100 to 500 nM and less than 100 nM, respectively.
For `C[C@@H]1CN(c2ncnc3c2c(OC(F)F)cn3-c2cc(Cl)ccn2)[C@@H](C)CN1C(=O)OC(C)(C)C` [Compound 521, tert-butyl (2R,5S)-4-(7-(4-chloropyridin-2-yl)-5-(difluoromethoxy)-7H-pyrrolo[2,3-d]pyrimidin-4-yl)-2,5-dimethylpiperazine-1-carboxylate], the EC50 on TRPML1 was less than 100 nM; at TRPML2, 500 to 2000 nM; at TRPML3, less than 100 nM.
With `C[C@H]1CN(C(=O)OC(C)(C)C)CCN1c1ncnc2c1c(N(C)C1CC1)cn2-c1cccc(Cl)c1` [Compound 522, tert-butyl (S)-4-(7-(3-chlorophenyl)-5-(cyclopropyl(methyl)amino)-7H-pyrrolo[2,3-d]pyrimidin-4-yl)-3-methylpiperazine-1-carboxylate], the half-maximal effective concentration (EC50) was 100 to 500 nM at TRPML1, 100 to 500 nM at TRPML2 and less than 100 nM at TRPML3.
Take `C[C@@H]1CN(c2ncnc3c2c(OC(F)F)cn3-c2cc(C#N)ccn2)[C@@H](C)CN1C(=O)OC(C)(C)C` [Compound 523, tert-butyl (2R,5S)-4-(7-(4-cyanopyridin-2-yl)-5-(difluoromethoxy)-7H-pyrrolo[2,3-d]pyrimidin-4-yl)-2,5-dimethylpiperazine-1-carboxylate]: the EC50 at TRPML1, at TRPML2 and at TRPML3 was less than 100 nM each time.
Take `C[C@@H]1CN(c2ncnc3c2c(OC(F)(F)F)cn3-c2cc(C#N)ccn2)[C@@H](C)CN1C(=O)OC(C)(C)C` [Compound 524, tert-butyl (2R,5S)-4-(7-(4-cyanopyridin-2-yl)-5-(trifluoromethoxy)-7H-pyrrolo[2,3-d]pyrimidin-4-yl)-2,5-dimethylpiperazine-1-carboxylate]: the EC50 at TRPML1, on TRPML2 and at TRPML3 was less than 100 nM throughout.
On to `C[C@@H]1CN(c2ncnc3c2c(C(C)(C)C)cn3-c2cc(C#N)ccn2)[C@@H](C)CN1C(=O)OC(C)(C)C` [Compound 525, tert-butyl (2R,5S)-4-(5-(tert-butyl)-7-(4-cyanopyridin-2-yl)-7H-pyrrolo[2,3-d]pyrimidin-4-yl)-2,5-dimethylpiperazine-1-carboxylate], for which the EC50 on TRPML1, on TRPML2 and on TRPML3 was less than 100 nM each time.

For orientation: EC50 means the concentration that produces a half-maximal response.
